These results are taken from article PMC10817917, “Alkyl deoxyglycoside-polymyxin combinations against critical priority carbapenem-resistant gram-negative bacteria” (Scientific Reports, 2024).

Converted amounts (≈) assume the structure as drawn. Where two headings read alike, the source gives them in different places.

As a reminder, the MIC is the lowest concentration found to suppress growth. Broadly, the IC50 is the midpoint of a concentration-inhibition curve.

The subject of test [1] is E. coli ATCC 25922. Put plainly: Broth microdilution MIC/MBC, glycosides with or without polymyxins. Type of test: cell-based, Escherichia coli. A general note: Broth dilution looks for growth in wells or tubes with falling amounts of substance.
Test [2] relates to K. pneumoniae CQ4921. The description is as above. Type of test: cell-based, Klebsiella pneumoniae.
Test [3] deals with E. cloacae CQ1941. The description is as above. Type of test: cell-based.
For test [4], the system named is K. pneumoniae CQ1942. Put plainly: Broth microdilution MIC, glycosides with or without polymyxins. It counts as cell-based, Klebsiella pneumoniae.
For test [5], the system named is K. pneumoniae CQ1947. Described as above. Type of test: cell-based, Klebsiella pneumoniae.
For test [6], the system named is P. aeruginosa CQ4924. Described as above. Conditions: for MIC (antibiotic susceptibility profile) / RIS (susceptibility category): antibiotic alone. It counts as cell-based, Pseudomonas aeruginosa.
Test [7] relates to A. baumannii CQ4322. Put plainly: Broth microdilution MIC/MBC, glycosides with or without polymyxins. Type of test: cell-based, Acinetobacter baumannii.
The subject of test [8] is E. coli NCTC 13846. The description is as above. It counts as cell-based, Escherichia coli. Conditions: antibiotic alone; strain B.
Test [9] has as its system Caco-2 cells. Put plainly: Resazurin cell viability assay (cytotoxicity). To be noted: tested alone (no polymyxin adjuvant); 72 h. Type of test: cell-based, human. As to the method:
(§1) Cytotoxicity of each compound alone or in combination with different polymyxin concentrations was evaluated through the resazurin cell viability assay[49] in human embryonic HEK-293T cells, as well as in human colon adenocarcinoma Caco-2 cells, after a 72-h long incubation period.
(§2) HEK-293T and Caco-2 cells were grown in RPMI 1640 medium (VWR) supplemented with 10% FBS (Biowest), 1% PenStrep (Sigma Aldrich), and 1% glutamine (Biowest) in a humidified incubator at 37 °C with a 5% CO2 atmosphere. Twice a week, the medium was aspirated, the cells were washed with DPBS (VWR), trypsinized with trypsin–EDTA solution (Biowest), and resuspended in fresh culture medium. The dose-dependent effects of each glycoside or glycoside-polymyxin combination were evaluated by the resazurin cell viability assay. Polymyxins (colistin sulfate and PMB sulfate for microbiological assays, European Pharmacopoeia Reference Standards, Sigma-Aldrich) were firstly dissolved in sterilized Mili-Q water to a stock concentration of 1 mg/mL, while glycosides were dissolved in DMSO to a stock concentration of 30 mM. 1.5 × 10^4 cells/well in 96.5 µL of medium were seeded onto 96-well plates and incubated at 37 °C for 24 h. For each compound, ten stock dilutions (with concentrations from 750 to 75 µM) were prepared in fresh medium immediately prior to incubation. 16 µL of each dilution were added to each well so that the final glycoside concentrations ranged from 100 to 10 µM in each row in a final assay volume of 120 µL. In addition, the previously prepared polymyxin stock solutions were diluted in fresh medium, affording new stocks of 8, 4, and 2 µg/mL. The same volume (7.5 µL/well) of PMB or colistin was then added to each row to achieve a final polymyxin concentration of 0.5, 0.25, and 0.125 µg/mL, respectively, regardless of the glycoside concentration. In assays without polymyxin, the same volume (7.5 µL/well) of medium was added. In all assays, the maximum DMSO concentration was 0.33%. After a 72-h incubation at 37 °C, 12 µL of a 0.15 mg/mL resazurin (Sigma-Aldrich) in sterilized Mili-Q water were added to each well, and the plates were left incubating for another 4 h at 37 °C. Resorufin was measured at 570/600 nm, and the percentage of resazurin reduction, corresponding to the cell viability percentage, was calculated according to Eq. (1)[60]. IC50 values were obtained by best fitting the dose-dependent inhibition curves using the Prism 9® software. The results were expressed as the mean ± SD of three independent replicates, with only data from analysis with R^2 > 0.90 being considered.1 %Cellviability=Abssample-Absmediumcontrol/Abscellcontrol-Absmediumcontrol×100
(In general: Alamar Blue is a resazurin reagent that responds to reducing activity.)

The subject of test [10] is HEK-293T cells. Put plainly: Resazurin cell viability assay (cytotoxicity). It counts as cell-based, human. To be noted: tested alone (no polymyxin adjuvant); 72 h. On the procedure: as §1, §2
Test [11] has as its system HEK-293 cells. Also on record: method as in PMID 30532748. To be noted: polymyxin alone; cited from earlier work.
Setting [12] is: Escherichia coli, ATCC25922, antibiotic alone, strain A, read-out: MIC (antibiotic susceptibility profile).
[13] abbreviates: Klebsiella pneumoniae, CQ4921, antibiotic alone, strain C, read-out: MIC (antibiotic susceptibility profile).
[14] abbreviates: Enterobacter cloacae, CQ1941, antibiotic alone, strain D, read-out: MIC (antibiotic susceptibility profile).
Where [15] appears, read: Klebsiella pneumoniae, CQ1942, antibiotic alone, strain E, read-out: MIC (antibiotic susceptibility profile).
Where [16] appears, read: Klebsiella pneumoniae, CQ1947, antibiotic alone, strain F, read-out: MIC (antibiotic susceptibility profile).

Regarding `CC(C)(O/N=C(\C(=O)N[C@@H]1C(=O)N2C(C(=O)[O-])=C(C[n+]3ccccc3)CS[C@H]12)c1csc(N)n1)C(=O)O` [Ceftazidime, reference compound], the MIC in test [1] (setting [12]) is 0.125 to 0.25 µg/mL (≈ 0.229 to 0.457 µM); in test [2] (setting [13]) it was 1 µg/mL (≈ 1.83 µM); in [3] (setting [14]), at least 128 µg/mL; in test [4] (setting [15]), at least 128 µg/mL; in test [5] (setting [16]), at least 128 µg/mL. Further, the “MIC (antibiotic susceptibility profile)” value in test [6] (strain H) amounted to 4 mg/L (≈ 7.32 µM).
As to `C[C@@H](O)[C@H]1C(=O)N2C(C(=O)O)=C(S[C@@H]3CN[C@H](C(=O)Nc4cccc(C(=O)O)c4)C3)[C@H](C)[C@H]12` [Ertapenem, reference compound], the MIC in test [1] (setting [12]) is 0.008 µg/mL (≈ 0.0168 µM); in test [2] (setting [13]), 8 to 64 µg/mL (≈ 16.8 to 135 µM); in [3] (setting [14]), 64 µg/mL (≈ 135 µM); in [4] (setting [15]), at least 128 µg/mL; in [5] (setting [16]) it was 16 to 64 µg/mL (≈ 33.6 to 135 µM). Further, the “RIS (susceptibility category)” value in test [7] (antibiotic alone, strain G) is “ERP”; in test [6] (strain H), “ERP”.
In the case of `CNC(C)C1CCC(N)C(OC2C(N)CC(N)C(OC3OCC(C)(O)C(NC)C3O)C2O)O1` (stereo not drawn) [Gentamicin, reference compound], the MIC in test [1] (setting [12]) was 0.5 µg/mL (≈ 1.05 µM); in test [2] (setting [13]) it was 0.25 to 0.5 µg/mL (≈ 0.523 to 1.05 µM); in test [3] (setting [14]), at least 128 µg/mL; in test [4] (setting [15]), 1 µg/mL (≈ 2.09 µM); in test [5] (setting [16]), 64 µg/mL (≈ 134 µM). Moreover, the “MIC (antibiotic susceptibility profile)” value is 32 to 64 mg/L in test [7] (antibiotic alone, strain G) and 2 mg/L (≈ 4.19 µM) in test [6] (strain H). The “RIS (susceptibility category)” value in [6] (strain H) is “wt”.
Regarding `C[C@@H](O)[C@H]1C(=O)N2C(C(=O)O)=C(SCCN=CN)C[C@H]12` [Imipenem, reference compound], the MIC in [1] (setting [12]) is 0.125 to 0.25 µg/mL (≈ 0.418 to 0.835 µM); in [2] (setting [13]), 4 µg/mL (≈ 13.4 µM); in [3] (setting [14]) it was 16 µg/mL (≈ 53.4 µM); in test [4] (setting [15]), at least 128 µg/mL; in test [5] (setting [16]), 8 to 16 µg/mL (≈ 26.7 to 53.4 µM). The “MIC (antibiotic susceptibility profile)” value was 32 to 64 mg/L in [7] (antibiotic alone, strain G) and 16 mg/L (≈ 53.4 µM) in test [6] (strain H).
For the molecule `C[C@@H](O)[C@H]1C(=O)N2C(C(=O)O)=C(S[C@@H]3CN[C@H](C(=O)N(C)C)C3)[C@H](C)[C@H]12` [Meropenem, reference compound], the MIC in test [1] (setting [12]) is 0.016 to 0.03 µg/mL (≈ 0.0417 to 0.0782 µM); in [2] (setting [13]), 4 µg/mL (≈ 10.4 µM); in test [3] (setting [14]) it was 32 to 64 µg/mL (≈ 83.4 to 167 µM); in test [4] (setting [15]), at least 128 µg/mL; in test [5] (setting [16]), 16 to 32 µg/mL (≈ 41.7 to 83.4 µM). In addition, in test [6] (strain H), the “MIC (antibiotic susceptibility profile)” value amounted to 16 mg/L (≈ 41.7 µM).
In the case of `NC[C@H]1O[C@H](O[C@H]2[C@H](O)[C@@H](O[C@H]3O[C@H](CO)[C@@H](O)[C@H](N)[C@H]3O)[C@H](N)C[C@@H]2N)[C@H](N)C[C@@H]1O` [Tobramycin, reference compound], the MIC in test [1] (setting [12]) is 0.5 µg/mL (≈ 1.07 µM); in test [2] (setting [13]), 0.25 µg/mL (≈ 0.535 µM); in test [3] (setting [14]), at least 128 µg/mL; in test [4] (setting [15]), 16 µg/mL (≈ 34.2 µM); in test [5] (setting [16]), at least 128 µg/mL. The “MIC (antibiotic susceptibility profile)” value was determined as 32 mg/L (≈ 68.4 µM) in [7] (antibiotic alone, strain G) and 1 mg/L (≈ 2.14 µM) in [6] (strain H).
Turning to colistin [reference compound], the MIC turned out to be 0.5 µg/mL in test [1] (agent alone, no adjuvant (polymyxin conc. 0), strain A); 0.5 µg/mL in [2] (agent alone, no adjuvant (polymyxin conc. 0), strain C); 0.5 µg/mL in test [3] (agent alone, no adjuvant (polymyxin conc. 0), strain D); 0.5 µg/mL in [4] (agent alone, no adjuvant (polymyxin conc. 0), strain E); 0.5 µg/mL in test [5] (agent alone, no adjuvant (polymyxin conc. 0), strain F); 0.5 µg/mL in [7] (agent alone, no adjuvant (polymyxin conc. 0), strain G). Further, the MIC in test [6] (agent alone, no adjuvant (polymyxin conc. 0), strain H) was determined as 1 µg/mL. The “MICB (MIC of colistin individually)” value in [1] (alone), in test [2] (alone), in [3] (alone), in test [4] (alone), in test [5] (alone) and in test [7] (alone) was 0.5 mg/L each time. The “MICB (MIC of colistin individually)” value in [6] (alone) is on record as 1 mg/L. For the same molecule, the “MIC (antibiotic susceptibility profile)” value in test [1] (antibiotic alone, strain A) is 0.5 to 1 mg/L; in test [8] it was 4 mg/L; in [2] (antibiotic alone, strain C), 0.125 to 1 mg/L; in test [3] (antibiotic alone, strain D), 0.125 to 1 mg/L; in [4] (antibiotic alone, strain E), 0.125 to 1 mg/L; in test [5] (antibiotic alone, strain F), 0.125 to 1 mg/L. In addition, the “MIC (antibiotic susceptibility profile)” value is 0.5 to 1 mg/L in test [7] (antibiotic alone, strain G) and 1 to 2 mg/L in test [6] (strain H). Moreover, the IC50 in test [9] was above 115 µg/mL; in test [10], above 115 µg/mL; in test [11], above 1000 µg/mL.
